The values below come from the NIST ThermoML archive (doi:10.1016/j.tca.2016.04.007).

± gives the expanded uncertainty stated by the source.

For data set [1] the following is noted: Crystal; DTA.
Data set [2] can be described thus: Molar enthalpy of transition or fusion. The settings on record: Crystal; DSC.

Take `CCCCCCCCCCCCCCCCBr` [1-bromohexadecane]: in data set [1], the Normal melting temperature was determined as 14.20 ± 3 °C. Besides, in data set [2], the “Molar enthalpy of transition or fusion” value was 45.5 ± 1.2 kJ/mol.

Take `CCCCCCCCCCCCCCCCCCBr` [1-bromooctadecane]: the Normal melting temperature in data set [1] is 23.50 ± 3 °C. The “Molar enthalpy of transition or fusion” value in data set [2] amounted to 54 ± 1.3 kJ/mol.
